Assay results reported in patent publication US10774052B2, “Heteroaryl compounds and uses thereof” (Celgene CAR LLC, priority 2013, dated 2020).
“Also recorded” adds a separate entry of the source. Like-named read-outs stand apart in the source and are kept apart here.

Columns and labels:
Type in all cases: cell-based
[1] = tested on: pFGFR4 in MDA-MB-453 cells; assay: Washout experiment (duration of action on pFGFR4); conditions: 1000-2000 nM for 1 hr, washed, up to 24 hr
Method: The cells were allowed to settle down for 4 hrs and were then maintained in low-serum (0.1% FBS) media overnight.
The following morning, the media was removed and the cells were treated with 1000-2000 nM of test compound in low-serum media for 1 hr. The cells were washed free of test compound (3×) with PBS (Invitrogen). One set of cells was immediately lysed as indicated above as the 0 hr time point. The remaining cells were incubated with the appropriate complete growth media (10-20% FBS) for 1, 2, 4, 8, 16 (in certain circumstances) and 24 hr. DMSO (0.5%) controls were collected at all time points.

pFGFR4 in Huh7 cells = assay: FGFR4 signaling, pFGFR4 (Huh); MSD (Method B); conditions: Homo sapiens
[2] = tested on: pFGFR4 in MDA-MB-453 cells; assay: FGFR4 signaling, pFGFR4 (MDA); Western blot (Method A), MSD (Method B), ELISA (Method C); conditions: Homo sapiens, MDA-MB-453 cells
[3] = Method B (MSD) for signaling EC50 determination
[4] = Huh-7, Huh7 cells, read-out: Signaling EC50 (nM) pFGFR4 (Huh)

| SMILES | duration of action against pFGFR4 signalling post washout [1] | EC50 (pFGFR4 in Huh7 cells; Huh-7, read-out: Signaling EC50 (nM) pFGFR4 (Huh)) [nM] | EC50 [2, 3] [nM] | EC50 (pFGFR4 in Huh7 cells; [4]) [nM] | EC50 ([2]; Method A (Western blot) for signaling EC50 determination) [nM] |
| --- | --- | --- | --- | --- | --- |
| C=CC(=O)NC1CCCCC1Nc1ncc2c(n1)N(Cc1cscn1)C(=O)N(c1c(Cl)c(OC)cc(OC)c1Cl)C2 (racemic) [Compound I-69] | prolonged inhibition of autophosphorylation of FGFR4; also recorded: prolonged duration of action | 101 to 500 | < 100 |  |  |
| C=CC(=O)Nc1ccccc1Nc1ncc2c(n1)N(Cc1cccc(NC(=O)CC)c1)C(=O)N(c1c(Cl)c(OC)cc(OC)c1Cl)C2 [Compound I-1] | prolonged duration of action; also recorded: has PDA |  | < 100 | < 100 |  |
| CCC(=O)Nc1cccc(CN2C(=O)N(c3c(Cl)c(OC)cc(OC)c3Cl)Cc3cnc(Nc4ccccc4NC(=O)CC)nc32)c1 [Compound I-234] | does not show prolonged duration of action; also recorded: does not have PDA |  |  |  | 101 to 500 |
| COc1cc(OC)c(Cl)c(N2Cc3cnc(Nc4ccccc4)nc3N(C)C2=O)c1Cl [Compound I-238] |  |  | < 100 | < 100 |  |
